The text below walks through data of US12569468B2, “Use of palovarotene in treatment against HBV virus” (YANG SHENG TANG COMPANY, LTD., priority 2020, dated 2026).

Holding throughout (type): cell-based, hepatitis B virus
In experiment [1] the test system is HBV. The experiment in a line: Inhibitory effect on HBV infection in infection model HepaRG M14A (drug before infection). The settings on record: 1, 5, 25 μM, treatment before infection. Here is the method: HepaRG was a hepatic progenitor cell line with differentiation potential which was isolated from the tumor tissue of a hepatitis C patient. After two weeks of cell plating, the cellular differentiation was induced with 2% DMSO (2 mL of DMSO was added to per 100 mL of cell culture medium) for two weeks. Finally, about 50% of the cells differentiated into hepatocyte-like cells, and the other 50% of the cells differentiated into cholangiocyte-like cells. Among them, hepatocyte-like cells supported HBV infection with an infection efficiency of about 20%. Through genetic modification of HepaRG, the HNF4A and FoxM1 genes were integrated into HepaRG cells, and a HepaRG M14A cell line that could complete differentiation and support HBV infection independent of DMSO was obtained by screening. (For the construction method of this cell model, please refer to: Zhao Jinghua. Development, Optimization and Preliminary Application of in vitro models supporting HBV Infection [D]. Xiamen University, 2016.)
This experiment was carried out in a 24-well cell culture plate. […] About 1.5×10^5 HepaRG M14A cells were plated in each well, and 500 μL of medium D was added to each well. After cell plating, medium D was replaced every 2 days. After 13 days of cell plating, medium D was replaced with drug-containing medium D for drug treatment. After 24 hours of drug treatment, the cells were infected with HBV, and the amount of HBV for infection in each well was 1000 MOI. Before infection, an HBV solution was obtained by diluting HBV in medium E, and the infection volume was 250 μL per well. During infection, the cell supernatant was first removed by suction, the HBV solution was added to the cells, then the cells were incubated for 24 hours, and then the supernatant was collected as the sample of Day 0. Then, the cells were washed three times with PBS warmed in bath at 37° C., and fresh drug-containing medium D (500 μL per well) was used for replacement, then the supernatant was collected every 2 days for detection, and fresh drug-containing medium D was used for replacement, until the 8th day, all the supernatant and cells were collected for related detection. The detection items include HBsAg, HBeAg, HBV DNA, HBV cccDNA, and for the detection method, please refer to Example 1.

The next experiment deals with HBV cccDNA. The experiment in a line: Southern blot detection of HBV cccDNA in HepAD38. The settings on record: 5 μM, 8 days, inhibitory effect inferior to that of control group (ETV 5 μM). Here is the method: The Southern blot experiment was performed on 6 cm^2 culture plates. About 4.2×10^6 HepAD38 cells were plated in each 6 cm^2 culture plate, and medium G containing tetracycline hydrochloride (Tetracycline) was added. During the experiment, the medium G containing tetracycline hydrochloride was removed, and the drug-containing medium F was added at the same time for drug treatment, in which the treatment concentration of test drug Palovarotene was 5 μM, and the control group used Entecavir (ETV) at a concentration of 5 μM for treatment, and the treatment time was 8 days.
The specific Southern blot detection method was carried out with reference to Example 3.

Experiment [2] concerns HBV. The experiment in a line: Therapeutic effect on human primary hepatocytes infected by HBV (drug from day 8 after infection). The conditions noted are these: drug added 8 days after infection. Here is the method:
The drug to be tested and the positive control drug were diluted with medium H to the required concentrations, and to the blank group the same volume of medium H without drug was added.
Primary hepatocytes were isolated from humanized mice transplanted with primary human hepatocytes through perfusion technique, directly cultured in 24-well plates after counting (5×10^5 primary hepatocytes per well), and medium H was added to maintain hepatocyte morphology. Infection with HBV was performed 24 hours after culturing, the amount of HBV for infection in each well was 2000 MOI. Before infection, HBV was first dissolved in medium I to obtain HBV solution, and the infection volume was 250 μL/well. During infection, the cell supernatant was first removed by suction, the HBV solution was added to the cells, the cells were incubated for 24 hours, then the supernatant was collected as the sample of Day 0, and then the supernatant was collected every two days for detection, fresh medium H was used for replacement. On the 8th day, fresh drug-containing medium H was used for replacement to start the drug treatment, until the 14th day, all the supernatant and the cells were collected for relevant detection. The detection items included: HBsAg, HBeAg, HBV DNA, HBV cccDNA, and for the detection method, please refer to Example 1.

[3] abbreviates: to day 14, p<0.05, more obvious at 5 μM and 25 μM.

Regarding `CC1(C)CCC(C)(C)c2cc(Cn3cccn3)c(/C=C/c3ccc(C(=O)O)cc3)cc21` [Palovarotene], in the experiment with HBV [1] (to day 8, p<0.0001), the “level of intracellular HBV DNA” value is “significantly reduce” and the “level of intracellular cccDNA” value was “significantly reduce”. Further, in the experiment on HBV [1] (to day 8, p<0.05), the “level of HBeAg in cell supernatant” value is “significantly reduce” and the “level of HBsAg in cell supernatant” value is “significantly reduce”. Besides, the “level of HBV cccDNA (Southern blot)” value with HBV cccDNA is reported as “significantly inhibit”. Further, the “HBV cccDNA” value in the experiment with HBV [2] (to day 14, 25 μM, p<0.01) is “significant inhibitory effects”. Besides, the “HBV DNA” value in the experiment on HBV [2] (to day 14, 25 μM, p<0.05) is “significant inhibitory effects”. Moreover, in the experiment with HBV [2] (setting [3]), the “level of HBeAg in the cell supernatant” value is reported as “significantly inhibited” and the “level of HBsAg in the cell supernatant” value was “significantly inhibited”.
